Assays:
Test in all cases: KINOMEscan competition binding
Conditions in all cases: compound 10.0 µM
[1] = biological target: TESK1 (human) (UniProt Q15569)
[2] = biological target: DAPK3 (human) (UniProt O43293)
[3] = biological target: MAP3K3 (human) (UniProt Q99759)
[4] = biological target: AKT2 (human) (UniProt P31751)
[5] = biological target: ADCK3 (human) (UniProt Q8NI60)
[6] = biological target: MAP2K6 (human) (UniProt P52564)
[7] = biological target: NLK (human) (UniProt Q9UBE8)
[8] = biological target: MAPK15 (human) (UniProt Q8TD08)
[9] = biological target: ERBB4 (human) (UniProt Q15303)
[10] = biological target: PTK2 (human) (UniProt Q05397)
[11] = biological target: CDC2L2 (human) (UniProt Q9UQ88)
[12] = biological target: STK4 (human) (UniProt Q13043)
[13] = biological target: NEK7 (human) (UniProt Q8TDX7)
[14] = biological target: LIMK2 (human) (UniProt P53671)
[15] = biological target: MAPKAPK5 (human) (UniProt Q8IW41)
[16] = biological target: PTK6 (human) (UniProt Q13882)
[17] = biological target: MAPK6 (human) (UniProt Q16659)
[18] = biological target: RPS6KA4 KD1 (human) (UniProt O75676)
[19] = biological target: EPHB2 (human) (UniProt P29323)
[20] = biological target: SGK110 (human) (UniProt P0C264)
[21] = biological target: STK10 (human) (UniProt O94804)
[22] = biological target: IKBKE (human) (UniProt Q14164)
[23] = biological target: MAPK1 (human) (UniProt P28482)
[24] = biological target: PIP4K2B (human) (UniProt P78356)
[25] = biological target: PIP5K1A (human) (UniProt Q99755)
[26] = biological target: CDK11B (human) (UniProt P21127)
[27] = biological target: MARK3 (human) (UniProt P27448)
[28] = biological target: PDPK1 (human) (UniProt O15530)
[29] = biological target: TAOK3 (human) (UniProt Q9H2K8)
[30] = biological target: TGFBR2 (human) (UniProt P37173)
[31] = biological target: MAPK11 (human) (UniProt Q15759)
[32] = biological target: TSSK1B (human) (UniProt Q9BXA7)
[33] = biological target: PLK3 (human) (UniProt Q9H4B4)
[34] = biological target: EPHB3 (human) (UniProt P54753)
[35] = biological target: STK16 (human) (UniProt O75716)
[36] = biological target: FES (human) (UniProt P07332)
[37] = system: KIT (human), P10721 [D816V]
[38] = biological target: DCLK1 (human) (UniProt O15075)
[39] = biological target: LTK (human) (UniProt P29376)
[40] = biological target: AKT1 (human) (UniProt P31749)
AKT1 (human), sequence (P31749 whole entry, looked up): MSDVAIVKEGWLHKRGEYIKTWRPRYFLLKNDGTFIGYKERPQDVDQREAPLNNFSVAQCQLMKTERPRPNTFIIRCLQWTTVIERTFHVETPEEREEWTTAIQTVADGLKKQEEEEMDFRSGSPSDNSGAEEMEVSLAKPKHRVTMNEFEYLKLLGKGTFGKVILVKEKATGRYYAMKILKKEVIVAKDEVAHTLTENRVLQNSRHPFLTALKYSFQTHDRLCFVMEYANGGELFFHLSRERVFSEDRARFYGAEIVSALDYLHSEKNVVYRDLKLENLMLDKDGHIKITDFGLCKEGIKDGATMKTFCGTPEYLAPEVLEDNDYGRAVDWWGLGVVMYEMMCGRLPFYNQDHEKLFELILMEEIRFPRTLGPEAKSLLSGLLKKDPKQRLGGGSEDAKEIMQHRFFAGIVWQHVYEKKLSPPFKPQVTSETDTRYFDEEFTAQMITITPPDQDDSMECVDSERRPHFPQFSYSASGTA

STK10 (human), sequence (O94804 whole entry, looked up): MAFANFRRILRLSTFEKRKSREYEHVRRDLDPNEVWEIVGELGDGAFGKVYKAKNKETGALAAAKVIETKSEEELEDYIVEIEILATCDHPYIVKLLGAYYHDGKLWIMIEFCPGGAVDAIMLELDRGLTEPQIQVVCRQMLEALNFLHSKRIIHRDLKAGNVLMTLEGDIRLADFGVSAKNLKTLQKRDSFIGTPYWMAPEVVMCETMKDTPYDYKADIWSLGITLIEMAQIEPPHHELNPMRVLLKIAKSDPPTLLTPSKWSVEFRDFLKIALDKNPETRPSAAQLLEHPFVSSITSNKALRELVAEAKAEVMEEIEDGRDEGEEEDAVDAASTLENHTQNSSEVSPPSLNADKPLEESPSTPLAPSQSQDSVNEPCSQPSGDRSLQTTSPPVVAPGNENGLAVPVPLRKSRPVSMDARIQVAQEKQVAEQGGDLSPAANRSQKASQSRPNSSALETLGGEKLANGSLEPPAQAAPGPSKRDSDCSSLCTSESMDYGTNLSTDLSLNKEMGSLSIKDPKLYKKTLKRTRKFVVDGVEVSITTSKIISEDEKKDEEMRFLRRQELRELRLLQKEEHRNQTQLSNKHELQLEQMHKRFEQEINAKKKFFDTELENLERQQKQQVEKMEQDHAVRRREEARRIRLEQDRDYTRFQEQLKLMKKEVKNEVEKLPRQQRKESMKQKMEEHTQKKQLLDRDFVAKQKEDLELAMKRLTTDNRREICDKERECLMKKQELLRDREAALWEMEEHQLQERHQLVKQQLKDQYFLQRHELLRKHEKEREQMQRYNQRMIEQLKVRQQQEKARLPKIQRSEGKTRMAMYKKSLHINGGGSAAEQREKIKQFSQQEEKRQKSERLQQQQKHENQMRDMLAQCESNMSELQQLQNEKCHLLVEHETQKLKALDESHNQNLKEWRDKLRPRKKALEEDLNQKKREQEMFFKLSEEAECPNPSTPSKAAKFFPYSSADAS
CDK11B (human), sequence (P21127 whole entry, looked up): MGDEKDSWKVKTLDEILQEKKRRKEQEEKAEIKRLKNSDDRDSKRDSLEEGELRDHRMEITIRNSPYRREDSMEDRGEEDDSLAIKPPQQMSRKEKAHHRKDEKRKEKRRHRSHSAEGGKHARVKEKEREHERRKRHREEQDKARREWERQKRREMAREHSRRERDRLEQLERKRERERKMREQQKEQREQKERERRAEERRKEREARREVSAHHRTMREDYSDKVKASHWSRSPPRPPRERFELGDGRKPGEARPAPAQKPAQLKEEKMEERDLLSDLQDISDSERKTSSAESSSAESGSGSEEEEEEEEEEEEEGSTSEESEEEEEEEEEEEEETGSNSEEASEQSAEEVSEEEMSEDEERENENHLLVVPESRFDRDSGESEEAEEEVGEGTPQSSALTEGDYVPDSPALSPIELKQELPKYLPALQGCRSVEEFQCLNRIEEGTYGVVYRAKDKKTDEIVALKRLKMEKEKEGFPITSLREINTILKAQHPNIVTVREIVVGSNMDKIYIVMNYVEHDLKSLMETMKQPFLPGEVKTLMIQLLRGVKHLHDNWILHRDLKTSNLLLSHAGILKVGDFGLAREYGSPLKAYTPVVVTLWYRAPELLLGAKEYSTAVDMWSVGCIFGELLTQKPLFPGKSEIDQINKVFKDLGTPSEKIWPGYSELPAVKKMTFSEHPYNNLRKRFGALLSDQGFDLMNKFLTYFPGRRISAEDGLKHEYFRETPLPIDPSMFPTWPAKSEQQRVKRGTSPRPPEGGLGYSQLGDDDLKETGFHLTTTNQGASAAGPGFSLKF
TESK1 (human), sequence (Q15569 whole entry, looked up): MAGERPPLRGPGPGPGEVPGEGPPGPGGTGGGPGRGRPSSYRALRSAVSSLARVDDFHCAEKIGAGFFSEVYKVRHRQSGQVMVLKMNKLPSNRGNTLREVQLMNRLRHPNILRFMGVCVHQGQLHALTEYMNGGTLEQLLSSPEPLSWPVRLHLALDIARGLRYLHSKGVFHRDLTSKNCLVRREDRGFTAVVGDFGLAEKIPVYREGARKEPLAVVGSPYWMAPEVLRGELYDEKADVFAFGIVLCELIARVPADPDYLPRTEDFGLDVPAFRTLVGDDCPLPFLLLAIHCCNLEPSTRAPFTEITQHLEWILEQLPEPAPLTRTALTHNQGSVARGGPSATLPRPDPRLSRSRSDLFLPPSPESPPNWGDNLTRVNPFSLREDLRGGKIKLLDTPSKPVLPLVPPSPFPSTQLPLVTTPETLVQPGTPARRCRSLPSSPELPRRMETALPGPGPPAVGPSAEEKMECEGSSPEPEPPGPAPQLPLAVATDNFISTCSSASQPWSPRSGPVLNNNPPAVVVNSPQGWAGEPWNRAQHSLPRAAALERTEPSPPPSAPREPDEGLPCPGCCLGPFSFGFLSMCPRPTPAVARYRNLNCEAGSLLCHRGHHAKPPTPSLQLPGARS
KIT (human), P10721 [D816V], sequence (P10721 whole entry D816V, looked up): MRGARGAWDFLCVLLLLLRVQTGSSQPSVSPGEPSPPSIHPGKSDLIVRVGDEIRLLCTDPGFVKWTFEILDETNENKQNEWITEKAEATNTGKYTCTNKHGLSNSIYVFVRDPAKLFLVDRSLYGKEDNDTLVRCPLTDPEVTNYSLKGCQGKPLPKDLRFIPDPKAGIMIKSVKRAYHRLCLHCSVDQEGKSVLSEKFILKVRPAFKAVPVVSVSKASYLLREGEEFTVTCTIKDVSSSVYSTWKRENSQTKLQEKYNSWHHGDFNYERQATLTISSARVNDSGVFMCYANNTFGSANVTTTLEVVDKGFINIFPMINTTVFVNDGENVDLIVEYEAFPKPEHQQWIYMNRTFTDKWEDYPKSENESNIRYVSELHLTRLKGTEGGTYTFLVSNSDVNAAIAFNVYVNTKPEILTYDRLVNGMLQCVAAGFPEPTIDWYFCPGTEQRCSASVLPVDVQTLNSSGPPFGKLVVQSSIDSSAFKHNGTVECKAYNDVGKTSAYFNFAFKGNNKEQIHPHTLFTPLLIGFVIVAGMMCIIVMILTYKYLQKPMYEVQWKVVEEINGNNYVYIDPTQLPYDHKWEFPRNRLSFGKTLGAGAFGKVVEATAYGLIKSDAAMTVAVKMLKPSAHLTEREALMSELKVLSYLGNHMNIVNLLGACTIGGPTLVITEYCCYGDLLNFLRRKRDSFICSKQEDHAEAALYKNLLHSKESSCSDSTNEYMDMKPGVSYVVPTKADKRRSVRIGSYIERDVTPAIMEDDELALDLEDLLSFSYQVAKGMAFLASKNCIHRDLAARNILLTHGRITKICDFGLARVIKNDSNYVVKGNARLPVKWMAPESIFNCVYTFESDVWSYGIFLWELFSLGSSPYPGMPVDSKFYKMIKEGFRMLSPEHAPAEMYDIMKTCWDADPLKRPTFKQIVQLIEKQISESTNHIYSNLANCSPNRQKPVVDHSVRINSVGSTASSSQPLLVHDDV
AKT2 (human), sequence (P31751 whole entry, looked up): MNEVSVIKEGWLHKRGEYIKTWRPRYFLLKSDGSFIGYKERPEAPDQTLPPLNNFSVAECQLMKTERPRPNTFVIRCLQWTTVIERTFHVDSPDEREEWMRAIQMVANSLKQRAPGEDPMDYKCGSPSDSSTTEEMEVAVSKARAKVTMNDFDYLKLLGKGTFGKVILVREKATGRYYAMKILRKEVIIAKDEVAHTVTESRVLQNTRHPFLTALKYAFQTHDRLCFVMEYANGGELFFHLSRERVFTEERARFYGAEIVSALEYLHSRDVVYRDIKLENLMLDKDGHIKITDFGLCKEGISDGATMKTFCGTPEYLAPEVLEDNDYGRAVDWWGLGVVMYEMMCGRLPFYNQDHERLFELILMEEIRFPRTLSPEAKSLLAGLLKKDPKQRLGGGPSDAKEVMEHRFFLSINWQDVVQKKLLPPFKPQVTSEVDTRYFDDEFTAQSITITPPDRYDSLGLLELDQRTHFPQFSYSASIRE
MAPK11 (human), sequence (Q15759 whole entry, looked up): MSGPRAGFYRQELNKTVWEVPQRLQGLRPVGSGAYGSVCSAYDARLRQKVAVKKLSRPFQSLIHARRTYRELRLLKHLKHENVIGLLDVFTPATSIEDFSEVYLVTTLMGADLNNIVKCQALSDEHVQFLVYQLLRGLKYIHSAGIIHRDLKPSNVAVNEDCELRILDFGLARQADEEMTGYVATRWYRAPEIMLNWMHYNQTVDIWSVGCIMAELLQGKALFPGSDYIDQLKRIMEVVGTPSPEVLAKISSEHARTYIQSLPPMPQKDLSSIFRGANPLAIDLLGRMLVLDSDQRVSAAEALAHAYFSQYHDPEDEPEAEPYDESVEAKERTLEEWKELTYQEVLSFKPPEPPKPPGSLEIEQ
STK16 (human), sequence (O75716 whole entry, looked up): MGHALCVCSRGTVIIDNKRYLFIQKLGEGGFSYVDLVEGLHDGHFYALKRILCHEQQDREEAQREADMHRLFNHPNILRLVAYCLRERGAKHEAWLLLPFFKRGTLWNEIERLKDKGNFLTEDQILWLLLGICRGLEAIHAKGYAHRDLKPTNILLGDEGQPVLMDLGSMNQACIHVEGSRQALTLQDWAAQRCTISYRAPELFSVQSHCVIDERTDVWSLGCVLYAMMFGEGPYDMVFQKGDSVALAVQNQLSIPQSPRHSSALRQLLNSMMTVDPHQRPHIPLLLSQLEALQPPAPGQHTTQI

SMILES | kinase still bound, per cent of control [1] | kinase still bound, per cent of control [2] | kinase still bound, per cent of control [3] | kinase still bound, per cent of control [4] | kinase still bound, per cent of control [5] | kinase still bound, per cent of control [6] | kinase still bound, per cent of control [7] | kinase still bound, per cent of control [8] | kinase still bound, per cent of control [9] | kinase still bound, per cent of control [10] | kinase still bound, per cent of control [11] | kinase still bound, per cent of control [12] | kinase still bound, per cent of control [13] | kinase still bound, per cent of control [14] | kinase still bound, per cent of control [15] | kinase still bound, per cent of control [16] | kinase still bound, per cent of control [17] | kinase still bound, per cent of control [18] | kinase still bound, per cent of control [19] | kinase still bound, per cent of control [20] | further results
Cc1ccc(NC(=O)c2cccc(C(C)(C)C#N)c2)cc1Nc1ccc2ncn(C)c(=O)c2c1 | 100% | 85% | 100% | 100% | 100% | 100% | 48% | 100% | 34% | 100% | 5.4% | 100% | 96% | 95% | 100% | 94% | 100% | 100% | 0% | 100% | kinase still bound, per cent of control [21]: 0.1%; kinase still bound, per cent of control [22]: 100%; kinase still bound, per cent of control [23]: 100%; kinase still bound, per cent of control [24]: 100%; kinase still bound, per cent of control [25]: 100%; kinase still bound, per cent of control [26]: 11%; kinase still bound, per cent of control [27]: 89%; kinase still bound, per cent of control [28]: 100%; kinase still bound, per cent of control [29]: 100%; kinase still bound, per cent of control [30]: 94%; kinase still bound, per cent of control [31]: 0%; kinase still bound, per cent of control [32]: 79%; kinase still bound, per cent of control [33]: 100%; kinase still bound, per cent of control [34]: 0%; kinase still bound, per cent of control [35]: 83%; kinase still bound, per cent of control [36]: 43%; kinase still bound, per cent of control [37]: 16%; kinase still bound, per cent of control [38]: 97%; kinase still bound, per cent of control [39]: 100%; kinase still bound, per cent of control [40]: 100%
O=C(NC1CC1)c1cccc(-c2ccc3c(NC(=O)C4CC4)n[nH]c3c2)c1 | 100% | 69% | 85% | 91% | 78% | 55% | 31% | 2.9% | 95% | 90% | 85% | 76% | 100% | 98% | 99% | 97% | 78% | 100% | 98% | 100% | kinase still bound, per cent of control [21]: 57%; kinase still bound, per cent of control [22]: 100%; kinase still bound, per cent of control [23]: 100%; kinase still bound, per cent of control [24]: 5.6%; kinase still bound, per cent of control [25]: 28%; kinase still bound, per cent of control [26]: 97%; kinase still bound, per cent of control [27]: 75%; kinase still bound, per cent of control [28]: 81%; kinase still bound, per cent of control [29]: 33%; kinase still bound, per cent of control [30]: 100%; kinase still bound, per cent of control [31]: 2.6%; kinase still bound, per cent of control [32]: 69%; kinase still bound, per cent of control [33]: 100%; kinase still bound, per cent of control [34]: 100%; kinase still bound, per cent of control [35]: 3%; kinase still bound, per cent of control [36]: 100%; kinase still bound, per cent of control [37]: 97%; kinase still bound, per cent of control [38]: 96%; kinase still bound, per cent of control [39]: 100%; kinase still bound, per cent of control [40]: 100%
C=CC(=O)Nc1cc(NC(=O)c2ccc(C)c(NC(=O)c3ccno3)c2)cc(C(F)(F)F)c1 | 100% | 96% | 96% | 100% | 100% | 100% | 93% | 100% | 100% | 91% | 94% | 99% | 100% | 96% | 83% | 100% | 100% | 100% | 77% | 100% | kinase still bound, per cent of control [21]: 100%; kinase still bound, per cent of control [22]: 100%; kinase still bound, per cent of control [23]: 100%; kinase still bound, per cent of control [24]: 100%; kinase still bound, per cent of control [25]: 100%; kinase still bound, per cent of control [26]: 86%; kinase still bound, per cent of control [27]: 67%; kinase still bound, per cent of control [28]: 94%; kinase still bound, per cent of control [29]: 77%; kinase still bound, per cent of control [30]: 93%; kinase still bound, per cent of control [31]: 4.8%; kinase still bound, per cent of control [32]: 93%; kinase still bound, per cent of control [33]: 100%; kinase still bound, per cent of control [34]: 99%; kinase still bound, per cent of control [35]: 100%; kinase still bound, per cent of control [36]: 100%; kinase still bound, per cent of control [37]: 78%; kinase still bound, per cent of control [38]: 100%; kinase still bound, per cent of control [39]: 89%; kinase still bound, per cent of control [40]: 58%

Reference: the kinase profiling compilation of Christmann-Franck et al. (2016)
